According to patent US20240417405A1, “Substituted Spiro Derivatives” (Janssen Pharmaceutica NV, priority 2021, published 2024):

Key:
[1] = target: T1, menin/MLL (terbium chelate-labeled menin, FITC-MBM1 peptide) (Homo sapiens, UniProt O00255, T541A); assay: Menin/MLL homogenous time-resolved fluorescence (HTRF) assay; assay type: binding; conditions: 30 min incubation
T1 construct: Menin (a.a 1-610-6xhis tag)
T1 sequence (O00255 with tags, fused parts or gaps T541A): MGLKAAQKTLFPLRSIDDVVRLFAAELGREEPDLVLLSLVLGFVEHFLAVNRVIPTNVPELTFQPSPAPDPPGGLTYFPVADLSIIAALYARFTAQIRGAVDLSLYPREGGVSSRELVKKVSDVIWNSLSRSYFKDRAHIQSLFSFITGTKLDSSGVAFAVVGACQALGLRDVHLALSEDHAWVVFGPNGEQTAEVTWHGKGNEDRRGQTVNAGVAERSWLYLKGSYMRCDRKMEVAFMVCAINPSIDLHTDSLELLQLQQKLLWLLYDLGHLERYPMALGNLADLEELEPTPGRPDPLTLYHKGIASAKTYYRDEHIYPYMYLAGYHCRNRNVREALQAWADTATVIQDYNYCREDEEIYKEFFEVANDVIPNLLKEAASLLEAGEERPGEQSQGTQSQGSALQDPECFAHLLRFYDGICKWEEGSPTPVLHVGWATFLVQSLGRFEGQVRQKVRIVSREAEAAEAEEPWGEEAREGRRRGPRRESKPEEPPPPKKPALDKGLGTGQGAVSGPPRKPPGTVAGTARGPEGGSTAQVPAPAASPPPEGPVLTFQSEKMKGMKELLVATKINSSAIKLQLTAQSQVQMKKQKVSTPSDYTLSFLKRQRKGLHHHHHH
Summary of the method: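 Terbium-labeled menin (aa 1-610, His-tagged; 200 pM) preincubated 30 min with compound, then 75 nM FITC-MBM1 peptide added for 15 min at ambient temperature in pH 7.5 Tris buffer, 0.5% DMSO. HTRF ratio 520/490 nm converted to % inhibition. IC50 came from an 11-point four-fold titration from 10 μM, floor 0.1 nM.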

KO-52 cells = assay: Proliferation assay, spheroid-like growth, KO-52 (MLL wildtype control cell line); assay type: cell-based, human; conditions: Homo sapiens, 192 h, KO-52 control cells, 8 days, confluence as measure of spheroid size; read-out: spheroid assay_OneTime KO-52 IC50
Summary of the method: (§1)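 Cells seeded in ultra-low attachment round-bottom wells (200 MOLM14 or 300 KO-52 per well) with compound at several concentrations, DMSO 0.3%, grown 8 days at 37° C, 5% CO2. Spheroid size taken as confluence from day-8 live-cell images; IC50 from variable-slope fit, DMSO as 0% and high-dose reference compound as 100% effect.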

MOLM14 cells = assay: Proliferation assay, spheroid-like growth, MOLM14 (MLL-AF9 rearranged); assay type: cell-based, human; conditions: Homo sapiens, MOLM-14, 192 h, 8 days, confluence as measure of spheroid size, read-out: spheroid assay_OneTime MOLM14 IC50
Summary of the method: as §1

| Structure (SMILES) | IC50 [1] [nM] | IC50 (MOLM14 cells) [nM] | IC50 (KO-52 cells) [nM] |
| --- | --- | --- | --- |
| CC(=O)N1CC2(C1)CN([C@H]1C[C@@H]([C@H](C(C)C)N3CC4(CCN(c5ncnnc5Oc5ccc(F)cc5-c5ncc(C)cc5C5CC5)C4)C3)C1)C2 (single isomer, unassigned) [Compound 373] | 0.77 | 7.6 | 5410 |
| CC(C)[C@H]([C@H]1C[C@@H](Nc2ncc(C(=O)N(C)C)o2)C1)N1CC2(CCN(c3ncnnc3Oc3ccc(F)cc3-c3cncnc3C3CC3)C2)C1 (single isomer, unassigned) [Compound 435] | 0.17 | 3 | 2470 |
| CCOC(=O)c1cnc(N[C@H]2C[C@@H](C(C(C)C)N3CC4(CCN(c5ncnnc5Oc5ccc(F)cc5-c5cncnc5C5CC5)C4)C3)C2)o1 (single isomer, unassigned) [Compound 478] | 0.29 | 12 | 1250 |
| CC(C)C([C@H]1C[C@@H](Nc2ncc(C(=O)O)o2)C1)N1CC2(CCN(c3ncnnc3Oc3ccc(F)cc3-c3cncnc3C3CC3)C2)C1 (single isomer, unassigned) [Compound 479] | 1.77 | 530 | > 15000 |
| CC(C)C([C@H]1C[C@@H](N2CCOCC2)C1)N1CC2(CCN(c3ncnnc3Oc3ccc(F)cc3-c3cncnc3C3CC3)C2)C1 (stereo partly drawn) [Compound 120] | 0.3 | 73 | > 15000 |
| CC(C)C([C@H]1C[C@@H](N2CCC(O)CC2)C1)N1CC2(CCN(c3ncnnc3Oc3ccc(F)cc3-c3cncnc3C3CC3)C2)C1 (stereo partly drawn) [Compound 121] | 0.1 | 7 | 2780 |
| CC(C)C([C@H]1C[C@H](N2CC(O)C2)C1)N1CC2(CCN(c3ncnnc3Oc3ccc(F)cc3-c3cncnc3C3CC3)C2)C1 (stereo partly drawn) [Compound 126] | 0.4 | 150 | 14900 |

The remaining compounds from weak to strong by IC50 [1], led by results:

| IC50 [1] [nM] | IC50 (MOLM14 cells) [nM] | Structure (SMILES) | IC50 (KO-52 cells) [nM] |
| --- | --- | --- | --- |
| 5.4 | 1910 | CC(C)C([C@H]1C[C@@H](N2CCS(=O)(=O)CC2)C1)N1CC2(CCN(c3ncnnc3Oc3ccc(F)cc3-c3cncnc3C3CC3)C2)C1 (stereo partly drawn) [Compound 123] | > 15000 |
| 0.4 | 29 | CC(=O)N[C@H]1C[C@@H](C(C(C)C)N2CC3(CCN(c4ncnnc4Oc4ccc(F)cc4-c4cncnc4C4CC4)C3)C2)C1 (stereo partly drawn) [Compound 2] | 9040 |
| 0.36 | 9.9 | CNC(=O)c1cnc(N[C@H]2C[C@@H](C(C(C)C)N3CC4(CCN(c5ncnnc5Oc5ccc(F)cc5-c5cncnc5C5CC5)C4)C3)C2)o1 (single isomer, unassigned) [Compound 436] | 5970 |
| 0.3 | 280 | CC(C)C(C1CCN(CC2COC2)CC1)N1CC2(CCN(c3ncnnc3Oc3ccc(F)cc3-c3cncnc3C3CC3)C2)C1 (stereo not drawn) [Compound 6] | 6470 |
| 0.22 | 3 | CC(=O)Nc1nccc(N[C@H]2C[C@@H]([C@@H](C(C)C)N3CC4(CCN(c5ncnnc5Oc5ccc(F)cc5-c5cncnc5C5CC5)C4)C3)C2)n1 (single isomer, unassigned) [Compound 405] | 7570 |
| 0.2 | 55 | CC(C)C([C@H]1C[C@@H](N2CCC(C#N)CC2)C1)N1CC2(CCN(c3ncnnc3Oc3ccc(F)cc3-c3cncnc3C3CC3)C2)C1 (stereo partly drawn) [Compound 122] | > 15000 |
| 0.2 | 12 | COC1CCN([C@H]2C[C@@H](C(C(C)C)N3CC4(CCN(c5ncnnc5Oc5ccc(F)cc5-c5cncnc5C5CC5)C4)C3)C2)CC1 (stereo partly drawn) [Compound 124] | 2520 |
| 0.1 | 12 | CC(C)C([C@H]1C[C@@H](N2CC(O)C2)C1)N1CC2(CCN(c3ncnnc3Oc3ccc(F)cc3-c3cncnc3C3CC3)C2)C1 (stereo partly drawn) [Compound 125] | 5300 |
| 0.05 | 3.3 | CNC(=O)c1cnc(N[C@H]2C[C@@H]([C@@H](C(C)C)N3CC4(CCN(c5ncnnc5Oc5ccc(F)cc5-c5cncnc5C5CC5)C4)C3)C2)s1 (single isomer, unassigned) [Compound 437] | 4700 |
